According to publication PMC12006171, “Marsupial cathelicidins: characterization, antimicrobial activity and evolution in this unique mammalian lineage” (Frontiers in Immunology, 2025):
In brackets after ≈: the same amount, converted by molar mass. Like-named read-outs stand apart in the source and are kept apart here. Where a SMILES comes first, the peptide text is derived from it.

How the values were obtained:
Format in all cases: cell-based
[1] = test system: Escherichia coli ATCC 25922; assay: microbe, parasite or virus in culture; details: ATCC 25922
Outline: (§1)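 Broth microdilution per CLSI M07-A/M26A: DMSO-solubilized cathelicidin mature peptides at final 64-0.125μg/mL in Mueller Hinton broth (with or without 10% lysed horse blood, with or without calcium/magnesium), final inoculum 5 x 10^5 CFU/mL, 35°C for 20–24 hours. MIC = lowest concentration preventing visible growth.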

[2] = test system: Escherichia coli clinical isolate - animal; assay: microbe, parasite or virus in culture; details: clinical isolate - animal
Outline: as §1

[3] = test system: Pseudomonas aeruginosa ATCC 27853; assay: microbe, parasite or virus in culture; details: ATCC 27853
Outline: as §1

[4] = test system: Pseudomonas aeruginosa clinical isolate - animal; assay: microbe, parasite or virus in culture; details: clinical isolate - animal
Outline: as §1

[5] = test system: Staphylococcus aureus ATCC 29213; assay: microbe, parasite or virus in culture; details: ATCC 29213
Outline: as §1

[6] = test system: Candida albicans Clinical isolate - human; assay: microbe, parasite or virus in culture; details: Clinical isolate - human; for MIC: read-out: MIC C. albicans
Outline: (§2)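 Broth microdilution per CLSI M07-A/M26A; peptides in DMSO, final 64-0.125 μg/mL, inoculum 5 x 10^5 CFU/mL. Bacteria in MHB ± 10% lysed horse blood ± Ca/Mg cations, yeasts in RPMI-1640 MOPS; 35°C for 20–24 h. MIC is lowest concentration without visible growth.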

[7] = test system: Candida krusei ATCC 6258; assay: microbe, parasite or virus in culture; details: ATCC 6258; for MIC: read-out: MIC C. krusei ATCC
Outline: as §2

[8] = test system: Candida parapsilosis ATCC 22019; assay: microbe, parasite or virus in culture; details: ATCC 22019; for MIC: read-out: MIC C. parapsilosis ATCC
Outline: as §2

[9] = test system: Streptococcus agalactiae ATCC 12386; assay: microbe, parasite or virus in culture; details: ATCC 12386; read-out: MIC S. agalactiae ATCC
Outline: as §2

[10] = test system: Streptococcus agalactiae Clinical isolate - animal; assay: microbe, parasite or virus in culture; details: clinical isolate - animal
Outline: as §2

[11] = test system: Streptococcus pneumoniae ATCC 49619; assay: microbe, parasite or virus in culture; details: ATCC 49619; read-out: MIC S. pneumoniae ATCC
Outline: as §2

[12] = test system: Staphylococcus aureus clinical isolate – animal, methicillin-resistant (MRSA); details: clinical isolate – animal, methicillin-resistant
Description: (§3) Antimicrobial testing of 78 cathelicidin MPs was performed in two phases as outlined in Figure 1 . In phase I, 40 peptides (27 extant and 13 ancestral) were selected for testing based on rank (outlined above) and similarity to published marsupial cathelicidins with known antimicrobial activity ([33], [41]–[43]). These peptides were tested against nine bacteria (Staphylococcus aureus ATCC 29213 and clinical isolate, Escherichia coli ATCC 25922 and clinical isolate, Pseudomonas aeruginosa ATCC 27853 and clinical isolate, Streptococcus agalactiae ATCC 12386 and clinical isolate, Streptococcus pneumoniae ATCC 49619) and three fungi (Candida krusei ATCC 6258, Candida parapsilosis ATCC 22019, and Candida albicans clinical isolate). Details regarding these strains are available in Supplementary Table 4 . The antimicrobial activity of cathelicidins was determined as the minimum inhibitory concentration (MIC), which was the lowest concentration of cathelicidin that prevented visible bacterial or fungal growth, relative to the negative control. […] Minimum bactericidal concentration (MBC) and/or minimum fungicidal concentration (MFC) was conducted to determine microbicidal versus static action. Activity against S. aureus ATCC, E. coli ATCC, and Pseudomonas aeruginosa ATCC 27853 was examined in the presence of divalent cations to determine the impact of inhibitors.
(§4) Antimicrobial activity was determined using a broth microdilution susceptibility assay in 96 well polypropylene plates according to Clinical Laboratory Standards Institute guidelines M07-A and M26A as described previously ([33], [42], [43]). The bacterial and fungal isolates from humans and animals used in this study are outlined in Supplementary Table 4 . Only yeasts were included in the panel of fungi as they have been used in the susceptibility testing of eutherian ([3], [81]–[83]) and other marsupial cathelicidins previously ([33], [42], [43]). Cathelicidin mature peptides were solubilized in DMSO and serially diluted in duplicate from 128-0.25μg/mL in a final volume of 100µL. For bacteria, cathelicidins were diluted in Mueller Hinton Broth (MHB) with or without 10% lysed horse blood, and with (MH II B) or without (MHB) calcium and magnesium cations. For fungi, cathelicidins were diluted in Roswell Park Memorial Institute medium (RPMI)-1640 MOPS. Ampicillin or tetracycline were included as a positive control for Gram-positive and -negative bacteria respectively, while amphotericin B was used for fungi. A media-only negative control and growth control (no cathelicidin) were also included on each plate. Bacteria were sub-cultured on Muller Hinton agar (MHA) or sheep blood agar (BA), and fungi on Sabouraud dextrose agar (SAB), 20–24 hours prior to the test. Colonies were suspended in saline, the concentration adjusted to a 0.5 McFarland standard, and then diluted in media to a concentration of 1.0 x 10^6 cells/mL. Then, 100μL was added to each well of the cathelicidin dilution plate, giving a final inoculum density of 5 x 10^5 CFU/mL and cathelicidin concentration of 64-0.125μg/mL. Colony counts were performed on MHA/BA/SAB to confirm inoculum density. All plates were incubated at 35°C for 20–24 hours, depending on the strain.
(§5) Colonies were counted and compared to the colony count of the starting inoculum.

[13] = test system: Staphylococcus aureus clinical isolate – animal, penicillin-resistant (PRSA); details: clinical isolate – animal, penicillin-resistant (PRSA)
Description: as §3, §4, §5

[14] = test system: Staphylococcus aureus clinical isolate - animal; assay: microbe, parasite or virus in culture; details: clinical isolate - animal; read-out: MIC S. aureus
Outline: as §1

[15] = read-out: MIC P. aeruginosa ATCC

SMILES	MBC E. coli ATCC [1]	MBC E. coli [2]	MIC in the presence of cations E. coli [2]	MIC [3, 15] [µM]	MBC P. aeruginosa [4]	MIC ([5]; read-out: MIC S. aureus ATCC) [µM]	MFC C. krusei ATCC [7] [µM]	MFC C. parapsilosis ATCC [8] [µM]	MIC [8] [µM]	MIC [9] [µM]	MIC [11] [µM]	MIC [6] [µM]	MIC [7] [µM]	further results
CC[C@H](C)[C@H](NC(=O)CNC(=O)[C@H](C)NC(=O)[C@H](CC(C)C)NC(=O)[C@@H](NC(=O)[C@H](CCCNC(=N)N)NC(=O)[C@@H](NC(=O)[C@H](CCCNC(=N)N)NC(=O)[C@@H](N)CCCCN)[C@@H](C)CC)[C@@H](C)CC)C(=O)N[C@@H](Cc1c[nH]c2ccccc12)C(=O)N[C@@H](CC(=O)O)C(=O)N[C@@H](CCCNC(=N)N)C(=O)N[C@@H](CC(C)C)C(=O)N[C@@H](CCCCN)C(=O)N[C@@H](CC(N)=O)C(=O)N[C@@H](CC(C)C)C(=O)NCC(=O)N[C@@H](CC(N)=O)C(=O)N[C@@H](CCCNC(=N)N)C(=O)N[C@H](C(=O)N[C@@H](CCCCN)C(=O)N[C@@H](CC(N)=O)C(=O)N[C@@H](CCCNC(=N)N)C(=O)N[C@@H](CC(C)C)C(=O)N[C@@H](CCCNC(=N)N)C(=O)N[C@@H](CC(=O)O)C(=O)N[C@@H](Cc1ccccc1)C(=O)N[C@@H](Cc1ccccc1)C(=O)N[C@@H](CO)C(=O)O)[C@@H](C)CC [AnstCath5] (H-KRIRILAGIWDRLKNLGNRIKNRLRDFFS-OH)	8.9 µM (≈ 31.8 µg/mL)	17.9 µM (≈ 63.9 µg/mL)	8.9 µM	>17.9	17.9 µM (≈ 63.9 µg/mL)	4.4 (≈ 15.7 µg/mL)	13.5 (≈ 48.2 µg/mL)	> 27.1	13.5 (≈ 48.2 µg/mL)	>17.9	>17.9	–	–	MIC ([1]; read-out: MIC E. coli ATCC): 4.4 µM (≈ 15.7 µg/mL); MIC ([1]; read-out: MIC in the presence of cations E. coli ATCC): 4.4 µM; MIC [2]: 8.9 µM (≈ 31.8 µg/mL); MIC ([4]; read-out: MIC P. aeruginosa): 8.9 µM (≈ 31.8 µg/mL); MIC ([4]; read-out: MIC in the presence of cations P. aeruginosa): 17.9 µM; MBC S. aureus ATCC [5]: 8.9 µM (≈ 31.8 µg/mL); MIC ([5]; read-out: MIC in the presence of cations S. aureus ATCC): 4.4 µM; MFC C. albicans [6]: > 27.1 µM; MIC C. albicans [6]: 27.1 µM (≈ 96.8 µg/mL); MIC C. krusei ATCC [7]: 13.5 µM (≈ 48.2 µg/mL); MBC S. agalactiae [10]: 8.9 µM (≈ 31.8 µg/mL); MIC S. agalactiae [10]: 8.9 µM (≈ 31.8 µg/mL); MBC MRSA [12]: 8.9 µM (≈ 31.8 µg/mL); MIC MRSA [12]: 4.4 µM (≈ 15.7 µg/mL); MBC PRSA [13]: 4.4 µM (≈ 15.7 µg/mL); MIC PRSA [13]: 4.4 µM (≈ 15.7 µg/mL)
CC[C@H](C)[C@H](NC(=O)[C@H](CCCNC(=N)N)NC(=O)[C@@H](N)CCCCN)C(=O)NCC(=O)N[C@@H](Cc1ccccc1)C(=O)NCC(=O)N[C@@H](CC(C)C)C(=O)N[C@@H](Cc1ccccc1)C(=O)N[C@@H](Cc1c[nH]c2ccccc12)C(=O)N[C@@H](CC(=O)O)C(=O)NCC(=O)N[C@@H](CC(C)C)C(=O)N[C@@H](CCCNC(=N)N)C(=O)N[C@@H](CCCCN)C(=O)N[C@@H](CC(C)C)C(=O)NCC(=O)N[C@@H](CC(N)=O)C(=O)N[C@@H](CCCNC(=N)N)C(=O)N[C@H](C(=O)N[C@@H](CCCCN)C(=O)N[C@@H](CC(N)=O)C(=O)N[C@@H](CCCNC(=N)N)C(=O)N[C@H](C(=O)N[C@@H](CCCNC(=N)N)C(=O)N[C@@H](CC(=O)O)C(=O)N[C@@H](Cc1ccccc1)C(=O)N[C@@H](Cc1ccccc1)C(=O)N[C@@H](CO)C(=O)N[C@@H](CCCCN)C(=O)N[C@@H](Cc1ccccc1)C(=O)N[C@@H](CC(C)C)C(=O)NCC(=O)O)[C@@H](C)CC)[C@@H](C)CC [MAP9] (H-KRIGFGLFWDGLRKLGNRIKNRIRDFFSKFLG-OH)	–	–	–	–	–	–	16.5 (≈ 63.6 µg/mL)	> 16.5	–	–	–	>16.5	8.2 (≈ 31.6 µg/mL)	MIC C. parapsilosis ATCC [8]: 16.5 µM (≈ 63.6 µg/mL)
CC[C@H](C)[C@H](NC(=O)[C@H](CCCCN)NC(=O)[C@H](Cc1ccccc1)NC(=O)[C@H](CC(N)=O)NC(=O)[C@H](CCCCN)NC(=O)[C@H](CC(C)C)NC(=O)[C@H](CCCNC(=N)N)NC(=O)[C@H](CCCCN)NC(=O)[C@H](CCCCN)NC(=O)[C@@H](NC(=O)[C@H](CCC(=O)O)NC(=O)[C@H](CC(=O)O)NC(=O)CNC(=O)[C@H](Cc1ccccc1)NC(=O)[C@H](CCCCN)NC(=O)[C@H](CCCCN)NC(=O)[C@H](CC(C)C)NC(=O)[C@H](CCCCN)NC(=O)[C@H](CCCCN)NC(=O)[C@H](CCCCN)NC(=O)[C@H](CC(C)C)NC(=O)[C@H](Cc1c[nH]c2ccccc12)NC(=O)[C@H](CCCNC(=N)N)NC(=O)[C@H](Cc1ccccc1)NC(=O)CNC(=O)CNC(=O)[C@H](CCCNC(=N)N)NC(=O)[C@@H](N)CCCCN)[C@@H](C)CC)C(=O)NCC(=O)N[C@@H](Cc1ccccc1)C(=O)N[C@@H](CC(C)C)C(=O)N[C@H](C(=O)N1CCC[C@H]1C(=O)N[C@@H](CC(C)C)C(=O)O)[C@@H](C)CC [MAP13] (H-KRGGFRWLKKKLKKFGDEIKKRLKNFKIGFLIPL-OH)	7.7 (7.7)^7.7 µM	7.7 (7.7)^7.7 µM	7.7 (7.7)^7.7 µM	7.7 (≈ 31.8 µg/mL)	15.4 (15.4)^15.4 µM	>15.4	–	> 15.4	7.7 (≈ 31.8 µg/mL)	>15.4	>15.4	>15.4	>15.4	MIC E. coli ATCC [1]: 7.7 (7.7)^7.7 µM; MIC in the presence of cations E. coli ATCC [1]: 7.7 (7.7)^7.7 µM; MIC E. coli [2]: 7.7 (7.7)^7.7 µM; MBC P. aeruginosa ATCC [3]: 15.4 µM (≈ 63.6 µg/mL); MIC ([3]; read-out: MIC in the presence of cations P. aeruginosa ATCC): 15.4 µM; MIC P. aeruginosa [4]: 15.4 (15.4)^15.4 µM; MIC in the presence of cations P. aeruginosa [4]: 15.4 (15.4)^15.4 µM; MIC [14]: >15.4 µM; MIC ([10]; read-out: MIC S. agalactiae): >15.4 µM
